Entries after “also recorded” stand apart in the source; their conditions may differ.
Key:
[1] = tested on: preformed R2R3 (P301L) fibrils; experiment: Elongation of preformed R2R3 (P301L) fibrils, ThT; format: biochemical; details: R2R3 P301L pre-aggregated 24 h, compound 10 μM; for fibril elongation, aggregation post-treatment as percentage of control (AUC after compound addition): further 24–30 h; for ThT-stained aggregates from post-treatment samples, confocal imaging: further 24 h
Experimental: Peptides were pre‐aggregated for 24 h with aggregation kinetics monitored by ThT fluorescence, after which 10 μM PUR or OLC was added, followed by an additional 24–30 h of incubation (Figure 4a). Aggregation kinetics was monitored by ThT fluorescence, and elongation was quantified as the AUC following compound addition, normalized to each replicate's maximum pre‐treatment fluorescence (Figure 4b). […] WT peptide fibril elongation was reduced to 15.5 ± 2.8% (PUR) and 45.2 ± 3.2% (OLC), and P301L peptide fibril elongation was limited to 31.8 ± 0.6% (PUR) and 85.6 ± 2.2% (OLC) (Figure 4b). Fluorescence microscopy imaging further confirmed the presence of reduced ThT‐positive aggregates following the addition of PUR and OLC (Figure S12). Similar inhibition trends, with PUR outperforming OLC, were also observed for V287I and N279K peptides (Figure S12).
FIGURE 4 Purpurin (PUR) and oleocanthal (OLC) inhibit elongation of preformed wild‐type (WT) and P301L tau fibrils. (a) The thioflavin T (ThT) fluorescence kinetics of pre‐aggregated R2R3 (WT and P301L) tau peptides treated with PUR or OLC (10 μM). Peptides were first allowed to aggregate for 24 h, followed by compound addition and continued incubation for an additional 24–30 h. Vertical dashed lines indicate the time point of compound addition. Curves are normalized to each replicate's maximum pre‐treatment ThT fluorescence. Source data are provided in the Data Availability Statement section. Mean ± SEM (n ≥ 3). (b) Aggregation levels post‐treatment, expressed as a percentage of control (untreated fibrils), calculated from the area under the curve after compound addition. Mean ± SEM (n ≥ 3). ***p < 0.001, **p < 0.01, one‐way ANOVA (Tukey's post hoc test).
Figure S12. Confocal imaging of ThT-stained aggregates from post-treatment samples in Figure 4. R2R3 (WT and P301L) tau peptides were incubated for 24 h to allow initial aggregation, followed by the addition of PUR or OLC (10 µM). After a further 24 h, reaction mixtures from compound-treated wells were collected, embedded in 0.05% low-melting agarose, and processed for imaging as described in Figure S11. […] Scale bar: 50 μm.

[2] = tested on: Tau RD P301S FRET Biosensor cells; experiment: Biosensor cell seeding assay, post-transduction treatment; format: cell-based; details: for concentrations at which seeding was significantly reduced, post-transduction treatment: P301L fibrils transduced 24 h, then compound for 24 h; for seeding (CFP/YFP inclusions) after post-transduction treatment: WT fibrils transduced 24 h, then compound 0 to 10 μM for 24 h
Experimental: To further evaluate whether PUR and OLC can suppress pathological tau propagation, we performed post‐transduction treatment assays in Tau RD P301S FRET Biosensor cells. WT or P301L tau fibrils were first transduced into cells for 24 h, followed by treatment with PUR or OLC for an additional 24 h. Prior MTS assays confirmed that these concentrations were non‐toxic to biosensor cells (Figure S16).
Tau peptides were aggregated with or without PUR or OLC in a 7.4 pH aggregation buffer without ThT. After 48 h, the contents of each well were pooled to a final total volume of 120 μL. The concentration of the pooled Aggregation Reaction Products was measured using the Pierce™ BCA Protein Assay Kit (Thermo Fisher Scientific Inc., Cat. # 23225). The reaction products were standardized for cell transduction to a final concentration of 100 nM for both control and drug‐treated samples. The pooled aggregation mixture was sonicated using a Branson Ultrasonic™ Sonifier Cup Horns (Marshall Scientific, Hampton, NH, USA) at 30% amplitude (15 s ON and 15 s OFF for 1 min) to fragment larger aggregates into smaller ones, facilitating consistent transduction.
Tau RD P301S FRET Biosensor cells were plated at 5 × 10^3 cells per well in PhenoPlate 384‐well, black, optically clear flat‐bottom plates (Revvity; Part # 6057302) pre‐coated with 50 μg/mL Poly‐ᴅ‐Lysine (Sigma‐Aldrich, Cat. # P6407). After plating, cells were incubated for 30 min at room temperature to promote better cell spreading before returning the plates to the incubator.
The next day, cells were transduced with 100 nM of aggregation mixture, which were either: (i) prepared in the absence (control) or presence of 10 μM PUR or OLC for co‐aggregation studies (Figure 5), or (ii) prepared exclusively in the absence of compounds for post‐transduction treatment studies (Figure 6). The aggregation mixtures were premixed with 0.2 μL per well TurboFect™ Transfection Reagent (Thermo Fisher Scientific Inc., Cat. # R0533) in 10 μL Opti‐MEM™ (Thermo Fisher Scientific Inc., Cat. #11058021) and added to cells.
For co‐aggregation studies (Figure 5), cells were cultured for 48 h after transduction before processing for imaging. […]
Cells were imaged on a Cell Voyager 7000S high‐content imaging system (Yokogawa, Tokyo, Japan) with a 20× objective. CFP/YFP inclusions of seeded tau were detected using a 488 nm laser line (Ex = 460–490 nm, Em = 500–550 nm), and Hoechst‐stained nuclei were detected using a 405 nm laser line (Ex = 360–400 nm, Em = 410–480 nm). […] Image analysis was performed using Signals Image Artist (Revvity) to quantify the number of cells (Hoechst‐stained nuclei) and intracellular CFP/YFP inclusions. […]

Tau Biosensor cells = experiment: MTS cytotoxicity assay, Tau Biosensor cells; format: cell-based; details: 0-100 µM, 72 h
Experimental: Figure S16. Cytotoxic activity of PUR and OLC. Tau Biosensor and CCRF-CEM (human leukemic lymphoblast) cells were treated with increasing concentrations (0-100 µM) of PUR and OLC for 72 h. Cell viability was then assessed using the MTS assay. CCRF-CEM (human leukemic lymphoblasts) cells, known for their high sensitivity to cytotoxic agents ^1, were used as positive controls. […] Calculated IC50 values are indicated in the graphs. Mean ± SEM (n = 3).

SMILES	fibril elongation, aggregation post-treatment as percentage of control (AUC after compound addition) [1] [%]	ThT-stained aggregates from post-treatment samples, confocal imaging [1]	concentrations at which seeding was significantly reduced, post-transduction treatment [2] [µM]	seeding (CFP/YFP inclusions) after post-transduction treatment [2]	cytotoxicity, cell viability (MTS) (Tau Biosensor cells)
C/C=C(/C=O)[C@@H](CC=O)CC(=O)OCCc1ccc(O)cc1 [OLC, oleocanthal]	85.6 ± 2.2	either a complete absence or a marked reduction in ThT signal	≥ 1.25	significantly reduced seeding at all tested concentrations	neither PUR nor OLC was cytotoxic; also recorded: non‐toxic
O=C1c2ccccc2C(=O)c2c(O)c(O)cc(O)c21 [PUR, purpurin]	31.8 ± 0.6	either a complete absence or a marked reduction in ThT signal	≥ 1.25	significantly reduced seeding at all tested concentrations	neither PUR nor OLC was cytotoxic; also recorded: non‐toxic

Reference: article PMC12381781, “Structural and functional insights into the selective inhibition of mutant tau aggregation by purpurin and oleocanthal in frontotemporal dementia” (Protein Science : A Publication of the Protein Society, 2025)
